Where a name gives a salt, the structure may show the parent alone.
What was measured:
human VR1 = biological target: T1, human VR1 (Homo sapiens, UniProt Q8NER1); assay: Receptor binding assay ([3H]RTX) using membranes of VR1 stably expressing cell; settings: [3H]RTX binding, VR1/HEK293 membrane preparation
T1 construct: A full-length cDNA encoding human VR1 was obtained by the following method; expressed in transfected cells; membrane preparation
Description: A full-length cDNA encoding human VR1 was obtained by the following method. First, human brain mRNA was reverse transcribed using a reverse transcriptase to synthesize a first strand cDNA. Then, using the first strand cDNA as a template, PCR according to Hot Start method was carried out using Taq DNA polymerase. The above PCR was carried out by first conducting thermal denaturation of 98° C. (1 min) and then repeating a cycle consisting of 98° C. (15 sec)/63° C. (30 sec)/72° C. (3 min) 35 times using an oligonucleotide consisting of a base sequence of 424th to 443rd in a known human VR1 cDNA sequence (Genbank AJ277028.1) as a sense primer and an oligonucleotide consisting of a complimentary sequence of a base sequence of 3082nd to 3100th as an antisense primer.
An amplified DNA fraction was cloned using pCR-XL-TOPO vector (TOPO XL PCR Cloning Kit; Invitrogen, USA). The resulting plasmid DNA was digested with a restriction enzyme EcoRI to isolate human VR1-cDNA alone, which was then integrated into pcDNA3.1(+) plasmid (Invitrogen, USA). The above genetic engineering operations were carried out in accordance with known methods (Sambrook, J. et al, Molecular Cloning—A Laboratory Manual”, Cold Spring Harbor Laboratory Press, NY, 2001) and directions attached to individual reagents.
Next, the resulting pcDNA3.1-VR1 was transduced into HEK293 cells or CHO-KL cells. VR1/HEK293 cells were selected using a DMEM medium (Invitrogen, USA) containing 10% FBS, 100 μg/ml streptomycin, 100 U/ml penicillin, and 400 μg/ml G418 and VR1/CHO cells were selected using a HumF12 medium (Invitrogen, USA) containing 10% FBS, 100 μg/ml streptomycin, 100 U/ml penicillin, and 400 μg/ml G418 to prepare receptor stably expressing cell lines. The receptor stably expressing cells were subcultured in respective above media.
After the above VR1/HEK293 cells were cultured in glass dishes in a large quantity, the medium was removed and cells were scraped up with adding ice-cooled PBS. They were centrifuged at 1,000 rpm at 4° C. for 10 minutes. After a buffer for homogenization (25 mM Tris-HCl, 220 mM sucrose, pH 7.4) was added to the resulting sediment and the whole was homogenized, it was centrifuged at 2,200 rpm at 4° C. for 10 minutes. The resulting supernatant was centrifuged at 30,000×g at 4° C. for 20 minutes and an operation of adding 25 mM Tris-HCl, pH 7.4 to the resulting sediment and centrifuging it at 30,000×g at 4° C. for 20 minutes was repeated twice. The resulting sediment was suspended in 25 mM Tris-HCl, pH 7.4 and protein concentration was determined using a protein assay staining solution (Bio Rad, USA). The membrane preparation thus prepared was stored at −80° C.
The test was carried out by modifying the method of [Neurosci. 57: 747-757 (1993)]. Assay buffer (25 mM Tris-HCl, 0.025% BSA, pH 7.4) (147 μl), 3 μl of a test compound, 50 μl of [^3H]RTX (about 50,000 dpm; Perkin-Elmer Life Science, USA), 100 μl of the above membrane preparation (protein amount of about 25 μg) were mixed and incubated at 37° C. for 60 minutes, and then the whole was incubated on ice for 10 minutes. An ice-cooled […] (AGP; Sigma) was added in an amount of 200 μg/50 μl, followed by further 5 minutes of incubation. The completion of the incubation was effected by rapid filtration of the mixture using a GF/B filter (Perkin-Elmer Life Science, USA). After the filter was washed with ice-cooled 25 mM Tris-HCl buffer (pH 7.4) seven times, radioactivity of the filter was measured by means of a liquid scintillation counter (2500TR; Packard, USA). With regard to a specific binding, of the total binding amount of [^3H]RTX and membrane fractions of VR1 receptor stably expressing cell, a portion substituted by 1 μM RTX was regarded as a specific binding derived from VR1 receptor. Evaluation of the test compound was conducted as follows. […]

[1] = system: paw-licking action induced by capsaicin; assay: Capsaicin test (paw-licking action); assay type: in vivo; settings: mouse, oral administration 30 mg/kg, 45 minutes before capsaicin; read-out: Inhibition ratio (%)
Description: The test was carried out in accordance with [Neuropharmacol. 31: 1279-1285 (1992)]. When 1.6 μg of capsaicin was administered to the planta of a mouse (ddY, male, 4- to 5-weeks old), a paw-licking action is induced. By measuring a time of expressing paw-licking action during 5 minutes after the administration, an inhibitory effect on pain behavior was evaluated. A test compound was administered intraperitoneally 30 minutes before the capsaicin administration or administered orally 45 minutes before the capsaicin administration. Evaluation of the test compound was conducted by determining each inhibition ratio in a test compound-administered group when the time of expressing paw-licking action in a vehicle-administered group was regarded as 100%.

T1 sequence (Q8NER1 whole entry): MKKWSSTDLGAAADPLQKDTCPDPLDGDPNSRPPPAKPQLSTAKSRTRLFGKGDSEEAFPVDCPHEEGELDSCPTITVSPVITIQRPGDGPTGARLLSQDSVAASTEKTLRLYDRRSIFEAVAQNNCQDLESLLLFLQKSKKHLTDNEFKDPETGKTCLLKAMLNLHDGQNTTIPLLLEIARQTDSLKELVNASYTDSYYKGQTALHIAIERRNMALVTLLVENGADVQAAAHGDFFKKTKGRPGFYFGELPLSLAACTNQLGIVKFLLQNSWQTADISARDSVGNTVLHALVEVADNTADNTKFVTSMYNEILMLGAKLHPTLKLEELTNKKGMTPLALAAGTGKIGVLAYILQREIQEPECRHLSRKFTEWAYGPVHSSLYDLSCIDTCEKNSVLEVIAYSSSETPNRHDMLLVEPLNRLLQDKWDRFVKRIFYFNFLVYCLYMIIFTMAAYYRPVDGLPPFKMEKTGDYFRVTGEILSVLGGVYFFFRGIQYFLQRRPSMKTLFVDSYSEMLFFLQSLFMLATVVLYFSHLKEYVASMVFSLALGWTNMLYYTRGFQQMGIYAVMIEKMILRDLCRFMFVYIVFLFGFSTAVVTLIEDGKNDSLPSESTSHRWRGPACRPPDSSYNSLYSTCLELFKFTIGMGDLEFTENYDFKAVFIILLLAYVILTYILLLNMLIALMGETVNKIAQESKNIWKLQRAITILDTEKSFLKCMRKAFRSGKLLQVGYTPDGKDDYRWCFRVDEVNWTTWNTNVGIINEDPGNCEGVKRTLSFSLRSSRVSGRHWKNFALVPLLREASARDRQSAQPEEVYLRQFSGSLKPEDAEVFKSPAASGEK

SMILES	IC50 (human VR1)	inhibition in vivo at 30 mg/kg [1]
CC1(C)C(=O)Nc2cc(NC(=O)c3ccc(-c4ccccc4)c(CN4CCCCC4)c3)ccc21 [Example 87]	≤ 1 µM	67%
CN1C(=O)CCc2ccc(NC(=O)c3ccc(-c4ccccc4)c(CN4CCCCC4)c3)cc21 [Example 78]	≤ 1 µM	76%
COc1cccc(NC(=O)c2ccc(-c3ccccc3)c(CN3CCCCC3)c2)c1 [Example 1, N-(3-methoxyphenyl)-2-(piperidin-1-ylmethyl)biphenyl-4-carboxamide hydrochloride]	≤ 1 µM	–
O=C(Nc1ccc2scnc2c1)c1ccc(-c2ccccc2)c(CN2CCCCC2)c1 [Example 7]	≤ 1 µM	–
O=C(Nc1ccc2scnc2c1)c1ccc(-c2ccccc2)c(CN2CCOCC2)c1 [Example 21]	≤ 1 µM	–
O=C1CCc2ccc(NC(=O)c3ccc(-c4ccccc4)c(CN4CCCCC4)c3)cc2N1 [Example 60]	≤ 1 µM	–
CC(C)N(Cc1cc(C(=O)Nc2ccc3scnc3c2)ccc1-c1ccccc1)C1CCCCC1 [Example 33]	≤ 1 µM	66%
CC1Oc2ccc(NC(=O)c3ccc(-c4ccccc4)c(CN4CCCCC4)c3)cc2N(C)C1=O (stereo not drawn) [Example 85]	≤ 1 µM	86%
CN(C)c1ccc(NC(=O)c2ccc(-c3ccccc3)c(CN3CCCCC3)c2)cn1 [Example 71]	≤ 1 µM	–

Second part, led by results:

IC50 (human VR1)	SMILES	inhibition in vivo at 30 mg/kg [1]
≤ 1 µM	CCN(CC)Cc1cc(C(=O)Nc2cc3c(c(C(F)(F)F)c2)CC(=O)N3)ccc1-c1ccccc1 [Example 143]	–
≤ 1 µM	CC1CCN(C2CCCN(Cc3cc(C(=O)Nc4ccc5c(c4)NC(=O)C(C)O5)ccc3-c3ccccc3)C2)CC1 (stereo not drawn) [Example 122]	–
≤ 1 µM	Cc1cc2ccc(NC(=O)c3ccc(-c4ccccc4)c(CN4CCCCC4)c3)cc2[nH]c1=O [Example 130]	62%
≤ 1 µM	CCN(Cc1cc(C(=O)Nc2ccc3c(c2)NC(=O)C(C)O3)ccc1-c1ccccc1)CC(C)(C)O (stereo not drawn) [Example 123]	69%
≤ 1 µM	CC(C)CN(CCN1CCCCC1)Cc1cc(C(=O)Nc2ccc3c(c2)NC(=O)C(C)O3)ccc1-c1ccccc1 (stereo not drawn) [Example 195]	–
≤ 1 µM	CN1C(=O)CCc2ccc(NC(=O)c3ccc(-c4cccs4)c(CN4CCCCC4)c3)cc21 [Example 163]	–
≤ 1 µM	CCN(Cc1cc(C(=O)Nc2ccc3c(c2)N(C)C(=O)CC3)ccc1-c1ccccc1)C1CCOCC1 [Example 170]	68%
≤ 1 µM	Cn1c(=O)ccc2ccc(NC(=O)c3ccc(-c4ccccc4)c(CN4CCCCC4)c3)cc21 [Example 129]	91%
≤ 1 µM	O=C(Nc1ccc2scnc2c1)c1ccc(-c2ccccc2)c(CN2CCC(F)CC2)c1 [Example 110]	–
≤ 1 µM	CCN(Cc1cc(C(=O)Nc2ccc3c(c2)N(C)C(=O)CC3)ccc1-c1ccccc1)C1CCSCC1 [Example 181]	–

Reference: US7855198B2, “Benzamide derivative or salt thereof” (Astellas Pharma Inc., priority 2003, dated 2010)
